# Results reported in paper PMC6767236, “Selective Cannabinoid 2 Receptor Agonists as Potential Therapeutic Drugs for the Treatment of Endotoxin-Induced Uveitis” (Molecules, 2019).
# Columns and labels:
# [1] = tested on: adhesion of adoptively-transferred leukocytes in the iridial microcirculation; assay: Adoptive transfer of WT leukocytes into neutrophil-depleted CB2R-/- mice with EIU; type: in vivo; settings: neutrophil-depleted CB2R-/- recipients with EIU, topical
# Procedure: For adoptive transfer experiments, calcein-AM-labelled leukocytes were visualized by fluorescence (495 nm excitation) in the iridial microcirculation using a Leica DMLM epifluorescence microscope (Leica, Wetzlar, Germany) equipped with a mercury-arc light source (LEG EBQ 100, Carl Zeiss, Jena, Germany) and captured by a CCD video camera (SIT 68, DAGE MTI, Michigan, IN, USA). Videos were recorded using WinDV Capture software (Mourek, Prague, Czech Republic) and stored on an external hard drive.
# During IVM animals were placed on a heating pad in a stereotactic frame, and Tear-Gel® (Novartis Pharmaceuticals Canada Inc., Dorval, QC, Canada) was applied to their cornea. The iris was divided into four equal quadrants by drawing two superficial lines on the cornea, lengthwise and widthwise. […] Two to four videos of each quadrant were recorded for 30 s each. Videos were analyzed off-line without knowledge of the treatment groups. […] Using ImageJ software (National Institute of Health, Bethesda, MD, USA) the number of adherent leukocytes within each vessel segment was calculated by measuring the diameter and length of vessel segment studied, assuming a cylindrical geometry of blood vessels. Adherent leukocytes were expressed as number of cells per mm^2 of endothelial surface. […] The number of rolling leukocytes was counted for 30 s and used to calculate the number of rolling leukocytes per min. […]
# [2] = Plasma protein binding (equilibrium dialysis), mouse plasma; type: in vitro ADME; settings: C57, pH 7.4, read-out: Plasma Protein Binding: FREE Fraction mouse
# Procedure: Pooled and frozen plasma from selected species were obtained from commercial suppliers […]
# (human […] and mouse […]3-C57; BioreclamationIV, NY, USA). Teflon […]
# equilibrium dialysis plates (96-well, 150 μL, half-cell capacity) and cellulose membranes (12–14 kDa molecular weight cut-off) were purchased from HT-Dialysis (Gales Ferry, Connecticut). Both biological matrix and phosphate buffer pH were adjusted to 7.4 on the day of the experiment. The reference substance was diazepam.
# The determination of unbound compound was performed using a 96-well format equilibrium dialysis device with a molecular weight cut-off membrane of 12 to 14 kDa. […]
# At equilibrium, the unbound drug concentration in the biological matrix compartment of the equilibrium dialysis apparatus is the same as the concentration of the compound in the buffer compartment. Thus, the percent unbound fraction was be calculated by determining the compound concentrations in the buffer and matrix compartments after dialysis as follows: % fraction unbound = 100 × buffer concentration after dialysis/matrix concentration after dialysis. […]
# P-glycoprotein (permeability-glycoprotein (P-gp), also known as multidrug resistance protein 1) is the most studied and best characterized drug transporter. […] The effect of P-gp was measured by expressing the efflux ratio of the unidirectional A > B and B > A Papp values. […]
structure (smiles),measurement,setting,value
"CC(C)(C)c1nc(N2CC[C@H](O)C2)c2nnn(Cc3nnnn3C3CC3)c2n1 [RO6871304, (3S)-1-{5-tert-butyl-3-[(1-cyclopropyl-1H-tetrazol-5-yl)methyl]-3H-[1,2, 3]triazolo[4,5-d]pyrimidin-7-yl}pyrrolidin-3-ol]",adhesion of adoptively-transferred leukocytes,[1],did not affect adhesion of adoptively-transferred leukocytes
same,"fraction unbound at 5 h, 1000 nM",[2],0.031
